Patent publication US8138189B2, “Substituted benzene compounds as modulators of the glucocorticoid receptor” (Hoffman-La Roche Inc., priority 2009, dated 2012)
pKi: −log10 of the molar value.

What follows are compounds tested against T1, full length human recombinant glucocorticoid receptor (Homo sapiens, UniProt P04150) (assay: Glucocorticoid Receptor Binding Assay (fluorescence polarization competitor assay, Fluormone GS Far Red tracer)).
T1 construct: partially purified full length human recombinant glucocorticoid receptor; purchased Panvera/Invitrogen PV4302
T1 sequence (P04150 1-777): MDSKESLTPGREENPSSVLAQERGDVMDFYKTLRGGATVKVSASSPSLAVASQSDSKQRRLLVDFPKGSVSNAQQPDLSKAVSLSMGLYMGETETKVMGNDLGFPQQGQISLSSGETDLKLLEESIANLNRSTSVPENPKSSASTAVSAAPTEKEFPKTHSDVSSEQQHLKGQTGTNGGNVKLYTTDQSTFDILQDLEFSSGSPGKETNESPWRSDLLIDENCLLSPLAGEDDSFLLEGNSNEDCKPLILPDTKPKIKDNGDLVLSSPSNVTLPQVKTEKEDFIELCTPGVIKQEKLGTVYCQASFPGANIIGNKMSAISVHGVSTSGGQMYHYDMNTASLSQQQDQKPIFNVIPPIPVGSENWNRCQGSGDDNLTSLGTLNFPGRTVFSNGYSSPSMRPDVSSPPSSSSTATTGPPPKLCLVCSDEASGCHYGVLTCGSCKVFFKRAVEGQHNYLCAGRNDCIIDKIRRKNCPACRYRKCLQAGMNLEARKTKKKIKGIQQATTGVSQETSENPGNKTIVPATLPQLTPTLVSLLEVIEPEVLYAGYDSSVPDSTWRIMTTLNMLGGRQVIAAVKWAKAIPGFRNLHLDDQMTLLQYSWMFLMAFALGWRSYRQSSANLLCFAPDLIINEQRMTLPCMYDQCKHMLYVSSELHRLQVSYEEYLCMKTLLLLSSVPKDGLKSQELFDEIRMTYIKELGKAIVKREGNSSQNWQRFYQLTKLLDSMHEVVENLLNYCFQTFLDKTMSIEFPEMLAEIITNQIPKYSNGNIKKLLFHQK
Method: Glucocorticoid Receptor Binding Assay
The ability of the substances to bind to the glucocorticoid receptor was determined with the help of a commercial Glucocorticoid Receptor Competitor Assay far red kit provided by Panvera/Invitrogen (PV4302). This kit is used as provided by the supplier. It contains some partially purified full length human recombinant glucocorticoid receptor, a coactivator related GR stabilizing peptide, a tight-binding fluorescent GR ligand Fluormone™ GS Far Red as labeled tracer and a screening buffer. All reagents are prepared and the assay is run according to the recommendations of the kit manufacturer.
Briefly, the GR stabilizing peptide and the human recombinant glucocorticoid receptor are both diluted with the screening buffer (pH 7.4) and are gently mixed (no vortexing) just before the assay and kept on ice until use. The fluorescent-labeled ligand is also diluted with the screening buffer just before the assay and kept on ice until use. The substances to test are pre-diluted in pure DMSO then some water is added to get an intermediate 4.2% DMSO stock solution. Ten microliter of the intermediate stock solution is gently mixed with 5 μl of diluted fluorescent-labeled ligand and 5 μl of diluted human recombinant glucocorticoid receptor in a 384-well plate (low volume, ultraclear, glass plate from Greiner ref 788896). The plate is centrifuged, sealed and incubated for 3 hours at 22° C. in the dark. The polarized fluorescence is measured with a Zeiss-HTS reader or any equivalent equipment (610-660 nm).
All compounds were tested to determine IC50 in a serial dilution experiment. The concentration at which 50% inhibition of the fluorescent GR ligand Fluormone™ GS Far Red is obtained (the IC50) is determined after fitting with a sigmoidal dose-response model of a plot of the logarithm of the concentration versus percent inhibition measured for the different concentrations. Ki's were calculated from IC50 based on Cheng-Prusoff equation (Cheng, Y, Prusoff, W H (1973) Biochem Pharmacol 22, 3099-3108): Ki=IC50/[1+D/Kd] wherein D is the concentration of the fluorescent ligand and Kd is the binding constant for the fluorescent ligand binding to the receptor under the conditions used in the competition experiment.

SMILES | pKi
CCOC(=O)c1ccc(COc2ccc([C@@H](C)[C@@](O)(c3cnc(C)cn3)C(F)(F)F)c(Cl)c2)cc1 (racemic) [Example 1, 4-{3-Chloro-4-[3,3,3-trifluoro-2-hydroxy-1-methyl-2-(5-methyl-pyrazin-2-yl)-propyl]-phenoxymethyl}-benzoic acid ethyl ester] | 7.12
COC(=O)Cc1ccc(COc2ccc([C@@H](C)[C@@](O)(c3cnc(C)cn3)C(F)(F)F)c(Cl)c2)cc1 (racemic) [Example 11, (4-{3-Chloro-4-[3,3,3-trifluoro-2-hydroxy-1-methyl-2-(5-methyl-pyrazin-2-yl)-propyl]-phenoxymethyl}-phenyl)-acetic acid methyl ester] | 7.08
COC(=O)c1ccc(COc2ccc([C@@H](C)[C@@](O)(c3cnc(C)cn3)C(F)(F)F)c(Cl)c2)c(OC)c1 (racemic) [Example 15, 4-{3-Chloro-4-[3,3,3-trifluoro-2-hydroxy-1-methyl-2-(5-methyl-pyrazin-2-yl)-propyl]-phenoxymethyl}-3-methoxy-benzoic acid methyl ester] | 7.14
Cc1cc([C@@](O)([C@@H](C)c2ccc(Oc3ccc(C(=O)O)c(F)c3)cc2Cl)C(F)(F)F)cn(C)c1=O (racemic) [Example 204, 4-{3-Chloro-4-[2-(1,5-dimethyl-6-oxo-1,6-dihydro-pyridin-3-yl)-3,3,3-trifluoro-2-hydroxy-1-methyl-propyl]-phenoxy}-2-fluoro-benzoic acid] | 9.40
Cc1cc([C@@](O)([C@@H](C)c2ccc(Oc3ccc(C(=O)O)cc3Cl)cc2Cl)C(F)(F)F)cn(C)c1=O (racemic) [Example 215, 3-Chloro-4-{3-chloro-4-[2-(1,5-dimethyl-6-oxo-1,6-dihydro-pyridin-3-yl)-3,3,3-trifluoro-2-hydroxy-1-methyl-propyl]-phenoxy}-benzoic acid] | 9.70
Cc1cc([C@@](O)([C@@H](C)c2ccc(Oc3ccc(C(=O)O)cn3)cc2Cl)C(F)(F)F)cn(C)c1=O (racemic) [Example 218, 6-{3-Chloro-4-[2-(1,5-dimethyl-6-oxo-1,6-dihydro-pyridin-3-yl)-3,3,3-trifluoro-2-hydroxy-1-methyl-propyl]-phenoxy}-nicotinic acid] | 8.85
C[C@H](c1ccc(C(=O)Nc2cccc(C(=O)O)n2)cc1Cl)[C@@](O)(c1ccnc(Cl)c1)C(F)(F)F (relative stereo) [Example 44, 6-{3-Chloro-4-[2-(2-chloro-pyridin-4-yl)-3,3,3-trifluoro-2-hydroxy-1-methyl-propyl]-benzoylamino}-pyridine-2-carboxylic acid] | 6.64
C[C@H](c1ccc(COc2ccc(C(=O)O)cn2)cc1Cl)[C@@](O)(c1ccnc(Cl)c1)C(F)(F)F (relative stereo) [Example 127, 6-{3-Chloro-4-[2-(2-chloro-pyridin-4-yl)-3,3,3-trifluoro-2-hydroxy-1-methyl-propyl]-benzyloxy}-nicotinic acid] | 8.26
C[C@H](c1cc(Oc2ccc(C(=O)O)cn2)ccc1Cl)[C@@](O)(c1ccnc(Cl)c1)C(F)(F)F (relative stereo) [Example 133, 6-{4-Chloro-3-[2-(2-chloro-pyridin-4-yl)-3,3,3-trifluoro-2-hydroxy-1-methyl-propyl]-phenoxy}-nicotinic acid] | 6.68
C[C@H](c1cc(Oc2ncc(C(=O)O)cn2)ccc1Cl)[C@@](O)(c1ccnc(Cl)c1)C(F)(F)F (relative stereo) [Example 135, 2-{4-Chloro-3-[2-(2-chloro-pyridin-4-yl)-3,3,3-trifluoro-2-hydroxy-1-methyl-propyl]-phenoxy}-pyrimidine-5-carboxylic acid] | 6.60
C[C@@H](c1ccc(OCc2ccc(CC(=O)O)cc2)cc1Cl)[C@](O)(c1cnc2ccccc2c1)C(F)(F)F (relative stereo) [Example 145, {4-[3-Chloro-4-(3,3,3-trifluoro-2-hydroxy-1-methyl-2-quinolin-3-yl-propyl)-phenoxymethyl]-phenyl}-acetic acid] | 8.72

The next lines start with the values.

pKi | SMILES
8.12 | COC(=O)c1ccc(COc2ccc([C@@H](C)[C@@](O)(c3ccnc(Cl)c3)C(F)(F)F)c(Cl)c2)c(OC)c1 (relative stereo) [Example 21, 4-{3-Chloro-4-[2-(2-chloro-pyridin-4-yl)-3,3,3-trifluoro-2-hydroxy-1-methyl-propyl]-phenoxymethyl}-3-methoxy-benzoic acid methyl ester]
7.88 | COC(=O)Cc1ccc(COc2ccc([C@@H](C)[C@@](O)(c3ccnc(Cl)c3)C(F)(F)F)c(Cl)c2)cc1 (relative stereo) [Example 23, (4-{3-Chloro-4-[2-(2-chloro-pyridin-4-yl)-3,3,3-trifluoro-2-hydroxy-1-methyl-propyl]-phenoxymethyl}-phenyl)-acetic acid methyl ester]
6.94 | COC(=O)c1ccc(N(C)C(=O)c2ccc([C@@H](C)[C@@](O)(c3ccnc(Cl)c3)C(F)(F)F)c(Cl)c2)cc1 (relative stereo) [Example 28, 4-({3-Chloro-4-[-2-(2-chloro-pyridin-4-yl)-3,3,3-trifluoro-2-hydroxy-1-methyl-propyl]-benzoyl}-methyl-amino)-benzoic acid methyl ester]
6.93 | COC(=O)c1ccc(CNC(=O)c2ccc([C@@H](C)[C@@](O)(c3ccnc(Cl)c3)C(F)(F)F)c(Cl)c2)cc1 (relative stereo) [Example 36, 4-({3-Chloro-4-[2-(2-chloro-pyridin-4-yl)-3,3,3-trifluoro-2-hydroxy-1-methyl-propyl]-benzoylamino}-methyl)-benzoic acid methyl ester]
6.81 | COC(=O)Cc1ccc(NC(=O)c2ccc([C@@H](C)[C@@](O)(c3ccnc(Cl)c3)C(F)(F)F)c(Cl)c2)cc1 (relative stereo) [Example 38, (4-{3-Chloro-4-[2-(2-chloro-pyridin-4-yl)-3,3,3-trifluoro-2-hydroxy-1-methyl-propyl]-benzoylamino}-phenyl)-acetic acid methyl ester]
6.92 | COC(=O)c1cccc(NC(=O)c2ccc([C@@H](C)[C@@](O)(c3ccnc(Cl)c3)C(F)(F)F)c(Cl)c2)c1 (relative stereo) [Example 40, 3-{3-Chloro-4-[2-(2-chloro-pyridin-4-yl)-3,3,3-trifluoro-2-hydroxy-1-methyl-propyl]-benzoylamino}-benzoic acid methyl ester]
7.33 | CCOC(=O)c1noc(-c2ccc([C@@H](C)[C@@](O)(c3ccnc(Cl)c3)C(F)(F)F)c(Cl)c2)n1 (relative stereo) [Example 47, 5-{3-Chloro-4-[2-(2-chloro-pyridin-4-yl)-3,3,3-trifluoro-2-hydroxy-1-methyl-propyl]-phenyl}-[1,2,4]oxadiazole-3-carboxylic acid ethyl ester]
7.31 | C[C@H](c1ccc(-c2ccc(C(=O)O)cc2)cc1Cl)[C@@](O)(c1ccnc(Cl)c1)C(F)(F)F (relative stereo) [Example 50, 3′-Chloro-4′-[2-(2-chloro-pyridin-4-yl)-3,3,3-trifluoro-2-hydroxy-1-methyl-propyl]-biphenyl-4-carboxylic acid]
7.83 | COC(=O)c1ccc(-c2ccc([C@@H](C)[C@@](O)(c3ccnc(Cl)c3)C(F)(F)F)c(Cl)c2)cc1F (relative stereo) [Example 53, 3′-Chloro-4′-[2-(2-chloro-pyridin-4-yl)-3,3,3-trifluoro-2-hydroxy-1-methyl-propyl]-3-fluoro-biphenyl-4-carboxylic acid methyl ester]
